Measurements published in patent publication US11844801B2, “Oral compositions of MK2 pathway inhibitor for treatment of immune conditions” (priority 2020, dated 2023).
Read-outs that look alike come from different tables or passages of the source.

System: TNF-α
Assay: LPS stimulated TNF-α production in human whole blood
Format: cell-based
Protocol: Compounds were serially diluted in 100% DMSO (Sigma-Aldrich, D2650) followed by a 50× dilution into DMEM/10% FBS (Gibco, 11965/26140). Vehicle consisted of DMSO at a final assay concentration of 0.1%. Pin tools (V&P Scientific, Inc., VP246) were placed in the wells and the plate was placed at 37° C. with 5% CO2, with gently shaking for five minutes, then pin tools were removed and saved. […] Pin tools were placed in the wells in the same orientation as the previous step and gently shook for five minutes at 37° C. with 5% CO2, then removed. […] The plasma was harvested and assayed for TNF-α, IL-1β, and IL-6 using Meso Scale Discovery Technology V-plex human cytokine kits according to the kit protocol. The kit plates were read using an MSD Sector S 6000 instrument. Calculations to establish cytokine calibration curves and to determine analyte concentrations in the samples were carried out using the MSD DISCOVERY WORKBENCH® analysis software.

Cc1cnc(-c2ccnc(C(C)(C)O)n2)cc1-n1c(C)cc(OCc2ncc(F)cc2F)c(Cl)c1=O (single isomer, unassigned) [ATI-450, 3-chloro-4-((3,5-difluoropyridin-2-yl)methoxy)-2′-(2-(2-hydroxypropan-2-yl)pyrimidin-4-yl)-5′,6-dimethyl-2H-[1,4′-bipyridin]-2-one]
IC50 (Human Whole Blood, LPS, 100 ng/mL, 4 or 24 hr, read-out: IC50, TNF-α): 29 ± 9 nM
IC50 (human whole blood, LPS 100 ng/mL, read-out: IC50, LPS-stimulated TNF-α): 10 to 100 nM
